Assay results: patent US20260000729A1, “COMBINATION THERAPIES FOR TREATMENT OF CANCER” (The Regents of the University of Michigan, priority 2022, published 2026)

How the values were obtained:
[1] = test system: PC3-luc cells; test: Intratibial PC3-luc tumor growth in SCID mice, checked weekly by BLI; assay type: in vivo; conditions: BAL 20 mg/kg s.c. twice daily, DOC 5 mg/kg i.p. once a week, weeks 1-4, combination p=0.009
Method: Methods: 59 severe combined immunodeficiency (SCID) mice received intratibial injection with PC3-luc cells (2×10^4 cells in 20 ul). Balixafortide (20 mg/kg) (BAL) and vehicle were injected subcutaneously twice daily starting on day one and Docetaxel (5 mg/kg) (DOC) was injected intraperitoneal once a week starting on day one. The tumor growth in mouse tibia was checked weekly by BLI.

[2] = test system: PC3-luc cells; test: Radiograph of injected tibia at necropsy: bone degradation and percent osteolytic area; assay type: in vivo, mice; conditions: proximal third of tibia, no significant differences among the groups
Method: After 30 days, at the time of necropsy, tumor growth in mouse tibia was checked by radiograph and mice were sacrificed, and serum and bone were collected. Serum was kept at −80° C. and tibia were stored in 10% buffered formalin at room temperature for 48 hours before being stored at 4° C.
Radiographic images were imported into SketchandCalc software. The proximal third of the tibia was traced to calculate its area and defined as total area, then osteolytic areas were traced to calculate the total osteolytic area (FIG. 3A) and the percent osteolytic area/bone area was calculated.

| Compound | tumor growth / total tumor burden in mouse tibia (BLI) [1] | percent osteolytic area/bone area (mean) [2] |
| --- | --- | --- |
| cyclo(-Tyr-His-Ala-Cys-Ser-Ala-^DPro-Dab-Arg-Tyr-Cys-Tyr-Gln-Lys-^DPro-Pro-) having a disulfide bond between Cys4 and Cys11 [Balixafortide] | neither BAL nor DOC impacted tumor growth as sole agents | no significant differences among the groups |
| CC(=O)O[C@@]12CO[C@@H]1C[C@H](O)[C@@]1(C)C(=O)[C@H](O)C3=C(C)[C@@H](OC(=O)[C@H](O)[C@@H](NC(=O)OC(C)(C)C)c4ccccc4)C[C@@](O)([C@@H](OC(=O)c4ccccc4)[C@H]21)C3(C)C [Docetaxel, (2R,3S)—N-carboxy-3-phenylisoserine,N-tert-butylester, 13 ester with 5ß-20-epoxy-1,2a,4,78,10B,13a-hexahydroxytax-11-en-9-one 4-acetate 2 benzoate] | neither BAL nor DOC impacted tumor growth as sole agents | lower than vehicle or Balixafortide |
